Data as given in ChEMBL document CHEMBL1909538, “Iodine-catalyzed conjugate addition of indoles onto en-1,4-dione: a novel synthesis of 3-(1-(1H-indol-3-yl)-2-oxo-2-phenylethyl)indolin-2-ones as antibacterial and antifungal agents” (2011).
Converted amounts (≈) assume the structure as drawn.

Columns and labels:
Escherichia coli = assay: Antimicrobial activity against Escherichia coli MTCC 443 by broth dilution method; assay type: functional
Pseudomonas aeruginosa = assay: Antimicrobial activity against Pseudomonas aeruginosa MTCC 741 by broth dilution method; assay type: functional
Klebsiella pneumoniae = assay: Antimicrobial activity against Klebsiella pneumoniae MTCC 618 by broth dilution method; assay type: functional
Bacillus subtilis = assay: Antimicrobial activity against Bacillus subtilis MTCC 441 by broth dilution method; assay type: functional
Staphylococcus aureus = assay: Antimicrobial activity against Staphylococcus aureus MTCC 96 by broth dilution method; assay type: functional
[1] = tested on: Staphylococcus epidermidis; assay: Antimicrobial activity against Staphylococcus epidermidis by broth dilution method; assay type: functional
Candida albicans [2] = assay: Antifungal activity against Candida albicans MTCC 227 at 100 ug after 48 hrs by agar well diffusion method; assay type: functional; conditions: MTCC 227, 48 h, read-out: DIZ
Diutina rugosa [3] = assay: Antifungal activity against Candida rugosa at 100 ug after 48 hrs by agar well diffusion method; assay type: functional; conditions: read-out: DIZ
Saccharomyces cerevisiae [4] = assay: Antifungal activity against Saccharomyces cerevisiae MTCC 36 at 100 ug after 48 hrs by agar well diffusion method; assay type: functional; conditions: MTCC 36, 48 h, read-out: DIZ
Candida albicans [5] = assay: Antifungal activity against Candida albicans MTCC 227 at 150 ug after 48 hrs by agar well diffusion method; assay type: functional; conditions: MTCC 227, 48 h, read-out: DIZ
Diutina rugosa [6] = assay: Antifungal activity against Candida rugosa at 150 ug after 48 hrs by agar well diffusion method; assay type: functional; conditions: read-out: DIZ
Saccharomyces cerevisiae [7] = assay: Antifungal activity against Saccharomyces cerevisiae MTCC 36 at 150 ug after 48 hrs by agar well diffusion method; assay type: functional; conditions: MTCC 36, 48 h, read-out: DIZ
Aspergillus flavus [8] = assay: Antifungal activity against Aspergillus flavus at 100 ug after 48 hrs by agar well diffusion method; conditions: read-out: DIZ
Aspergillus flavus [9] = assay: Antifungal activity against Aspergillus flavus at 150 ug after 48 hrs by agar well diffusion method; conditions: read-out: DIZ
Candida albicans [10] = assay: Antifungal activity against Candida albicans MTCC 227 at 50 ug after 48 hrs by agar well diffusion method; assay type: functional; conditions: MTCC 227, 48 h, read-out: DIZ
Diutina rugosa [11] = assay: Antifungal activity against Candida rugosa at 50 ug after 48 hrs by agar well diffusion method; assay type: functional; conditions: read-out: DIZ
Saccharomyces cerevisiae [12] = assay: Antifungal activity against Saccharomyces cerevisiae MTCC 36 at 50 ug after 48 hrs by agar well diffusion method; assay type: functional; conditions: MTCC 36, 48 h, read-out: DIZ
Aspergillus flavus [13] = assay: Antifungal activity against Aspergillus flavus at 50 ug after 48 hrs by agar well diffusion method; conditions: read-out: DIZ

Compound | MIC (Escherichia coli) [µg/mL] | MIC (Pseudomonas aeruginosa) [µg/mL] | MIC (Klebsiella pneumoniae) [µg/mL] | MIC (Bacillus subtilis) [µg/mL] | MIC (Staphylococcus aureus) [µg/mL] | MIC [1] [µg/mL] | zone of inhibition at 100 µg/disc (Candida albicans [2]) [mm] | zone of inhibition at 100 µg/disc (Diutina rugosa [3]) [mm] | zone of inhibition at 100 µg/disc (Saccharomyces cerevisiae [4]) [mm] | zone of inhibition at 150 µg/disc (Candida albicans [5]) [mm] | zone of inhibition at 150 µg/disc (Diutina rugosa [6]) [mm] | zone of inhibition at 150 µg/disc (Saccharomyces cerevisiae [7]) [mm] | zone of inhibition at 100 µg/disc (Aspergillus flavus [8]) [mm] | zone of inhibition at 150 µg/disc (Aspergillus flavus [9]) [mm] | zone of inhibition at 50 µg/disc (Candida albicans [10]) [mm] | zone of inhibition at 50 µg/disc (Diutina rugosa [11]) [mm] | zone of inhibition at 50 µg/disc (Saccharomyces cerevisiae [12]) [mm] | zone of inhibition at 50 µg/disc (Aspergillus flavus [13]) [mm]
CN[C@@H]1[C@H](O[C@H]2[C@H](O[C@H]3[C@H](O)[C@@H](O)[C@H](N=C(N)N)[C@@H](O)[C@@H]3N=C(N)N)O[C@@H](C)[C@]2(O)C=O)O[C@@H](CO)[C@H](O)[C@H]1O [STREPTOMYCIN] | 6.25 (≈ 10.7 µM) | 1.56 (≈ 2.69 µM) | 3.12 (≈ 5.37 µM) | 6.25 (≈ 10.7 µM) | 6.25 (≈ 10.7 µM) | 3.12 (≈ 5.37 µM) |  |  |  |  |  |  |  |  |  |  |  | 
Cc1[nH]c2ccccc2c1C(C(=O)c1ccccc1)C1C(=O)Nc2ccccc21 (stereo unspecified) | 150 (≈ 394 µM) | 18.8 (≈ 49.3 µM) | 150 (≈ 394 µM) | 150 (≈ 394 µM) | 37.5 (≈ 98.6 µM) | 150 (≈ 394 µM) | 0 | 9 | 0 | 0 | 13 | 0 | 0 | 0 |  |  |  | 
Cc1[nH]c2ccc([N+](=O)[O-])cc2c1C(C(=O)c1ccccc1)C1C(=O)Nc2ccccc21 (stereo unspecified) | 150 (≈ 353 µM) | 150 (≈ 353 µM) | 150 (≈ 353 µM) | 150 (≈ 353 µM) | 150 (≈ 353 µM) | 150 (≈ 353 µM) | 0 | 0 | 0 | 0 | 0 | 0 | 0 | 0 |  |  |  | 
O=C1Nc2ccccc2C1C(C(=O)c1ccccc1)c1c[nH]c2ccccc12 (stereo unspecified) | 150 (≈ 409 µM) | 9.38 (≈ 25.6 µM) | 150 (≈ 409 µM) | 75 (≈ 205 µM) | 75 (≈ 205 µM) | 150 (≈ 409 µM) | 0 | 11 | 0 | 0 | 16 | 0 | 0 | 0 |  |  |  | 
O=C1Nc2ccccc2C1C(C(=O)c1ccccc1)c1c(-c2ccccc2)[nH]c2ccccc12 (stereo unspecified) | 150 (≈ 339 µM) | 9.38 (≈ 21.2 µM) | 150 (≈ 339 µM) | 150 (≈ 339 µM) | 75 (≈ 169 µM) | 75 (≈ 169 µM) | 0 | 12 | 0 | 0 | 17 | 0 | 0 | 0 |  |  |  | 
N#Cc1ccc2[nH]cc(C(C(=O)c3ccccc3)C3C(=O)Nc4ccccc43)c2c1 (stereo unspecified) | 150 (≈ 383 µM) | 150 (≈ 383 µM) | 150 (≈ 383 µM) | 150 (≈ 383 µM) | 150 (≈ 383 µM) | 150 (≈ 383 µM) | 0 | 8 | 0 | 0 | 11 | 0 | 0 | 0 |  |  |  | 
C[C@@H]1[C@H](O)[C@@H](C)/C=C/C=C/C=C/C=C/C=C/C=C/C=C/[C@H](O[C@@H]2O[C@H](C)[C@@H](O)[C@H](N)[C@@H]2O)C[C@@H]2O[C@](O)(C[C@@H](O)C[C@@H](O)[C@H](O)CC[C@@H](O)C[C@@H](O)CC(=O)O[C@H]1C)C[C@H](O)[C@H]2C(=O)O [AMPHOTERICIN B] |  |  |  |  |  |  |  |  |  |  |  |  |  |  | 23.5 | 21 | 22 | 25
CC1(C)S[C@@H]2[C@H](NC(=O)Cc3ccccc3)C(=O)N2[C@H]1C(=O)O [PENICILLIN G] | 12.5 (≈ 37.4 µM) | 12.5 (≈ 37.4 µM) | 6.25 (≈ 18.7 µM) | 1.56 (≈ 4.67 µM) | 1.56 (≈ 4.67 µM) | 3.12 (≈ 9.35 µM) |  |  |  |  |  |  |  |  |  |  |  | 
O=C1Nc2ccccc2C1C(C(=O)c1ccccc1)c1c[nH]c2ccc(Br)cc12 (stereo unspecified) | 150 (≈ 337 µM) | 18.8 (≈ 42.1 µM) | 150 (≈ 337 µM) | 150 (≈ 337 µM) | 150 (≈ 337 µM) | 150 (≈ 337 µM) | 0 | 0 | 0 | 0 | 15 | 0 | 0 | 0 |  |  |  | 
O=C1Nc2ccccc2C1C(C(=O)c1ccccc1)c1c[nH]c2ccc([N+](=O)[O-])cc12 (stereo unspecified) | 150 (≈ 365 µM) | 9.38 (≈ 22.8 µM) | 150 (≈ 365 µM) | 75 (≈ 182 µM) | 150 (≈ 365 µM) | 150 (≈ 365 µM) | 0 | 0 | 0 | 0 | 0 | 0 | 0 | 0 |  |  |  | 
Cn1cc(C(C(=O)c2ccccc2)C2C(=O)Nc3ccccc32)c2ccccc21 (stereo unspecified) | 150 (≈ 394 µM) | 18.8 (≈ 49.3 µM) | 150 (≈ 394 µM) | 150 (≈ 394 µM) | 150 (≈ 394 µM) | 150 (≈ 394 µM) | 0 | 10 | 0 | 0 | 16 | 0 | 0 | 0 |  |  |  | 
O=C1Nc2ccccc2C1C(C(=O)c1ccccc1)c1c[nH]c2ccc(Cl)cc12 (stereo unspecified) | 150 (≈ 374 µM) | 9.38 (≈ 23.4 µM) | 150 (≈ 374 µM) | 150 (≈ 374 µM) | 18.8 (≈ 46.8 µM) | 75 (≈ 187 µM) | 0 | 13 | 0 | 0 | 17 | 0 | 0 | 0 |  |  |  | 
COC(=O)c1ccc2[nH]cc(C(C(=O)c3ccccc3)C3C(=O)Nc4ccccc43)c2c1 (stereo unspecified) | 150 (≈ 353 µM) | 18.8 (≈ 44.2 µM) | 150 (≈ 353 µM) | 150 (≈ 353 µM) | 75 (≈ 177 µM) | 150 (≈ 353 µM) | 0 | 10 | 0 | 0 | 15 | 0 | 0 | 0 |  |  |  | 
